Source: article PMC11249646, “Small-Molecule Disruptors of the Interaction between Calcium- and Integrin-Binding Protein 1 and Integrin αIIbβ3 as Novel Antiplatelet Agents” (ACS Pharmacology & Translational Science, 2024)

Biological target: T1, GST-CIB1 : F-scrambled peptide (Homo sapiens, UniProt Q99828)
T1 construct: made in house; host or cells: BL-21 plus RIL cells (E. coli)
T1 sequence (Q99828 1-191): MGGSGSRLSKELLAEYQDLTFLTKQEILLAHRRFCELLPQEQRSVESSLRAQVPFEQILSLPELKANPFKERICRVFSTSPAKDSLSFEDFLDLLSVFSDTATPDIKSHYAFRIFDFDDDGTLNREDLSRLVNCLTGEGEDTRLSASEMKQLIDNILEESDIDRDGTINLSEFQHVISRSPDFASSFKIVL
Assay: FP scrambled-peptide counter screen, 384-well format
Assay type: binding
Details: F-scrambled peptide

Row | SMILES | 384-well COUNTERSCREEN Efficacy (%)
1 | CCOC(=O)c1nnc(NS(=O)(=O)c2ccc(NC(=O)Cc3ccc(Cl)c(Cl)c3)cc2)s1.O=C(O)C(F)(F)F [NCGC00248354-01] | 20%
2 | O=C(Cc1ccc(Cl)c(Cl)c1)Nc1ccc(S(=O)(=O)Nc2nnc(-c3ccccn3)s2)cc1.O=C(O)C(F)(F)F [NCGC00248355-01] | 38%

Same assay, conditions: F-scrambled peptide; *: Curve in opposite direction

Row | SMILES | 384-well COUNTERSCREEN Confirm?
3 | CCOC(=O)c1nnc(NS(=O)(=O)c2ccc(NC(=O)Cc3ccc(Cl)c(Cl)c3)cc2)s1.O=C(O)C(F)(F)F [NCGC00248354-01] | YES
4 | O=C(Cc1ccc(Cl)c(Cl)c1)Nc1ccc(S(=O)(=O)Nc2nnc(-c3ccccn3)s2)cc1.O=C(O)C(F)(F)F [NCGC00248355-01] | YES

Same assay, conditions: F-scrambled peptide; read-out: 384-well COUNTERSCREEN IC50

Row | SMILES | IC50
5 | CCOC(=O)c1nnc(NS(=O)(=O)c2ccc(NC(=O)Cc3ccc(Cl)c(Cl)c3)cc2)s1.O=C(O)C(F)(F)F [NCGC00248354-01] | > 120 µM
6 | O=C(Cc1ccc(Cl)c(Cl)c1)Nc1ccc(S(=O)(=O)Nc2nnc(-c3ccccn3)s2)cc1.O=C(O)C(F)(F)F [NCGC00248355-01] | > 120 µM

Biological target: T2, CIB1 and αIIb interaction (CIB1-GST : F-αIIb peptide) (Homo sapiens, UniProt Q99828)
T2 construct: made in house; host or cells: BL-21 plus RIL cells (E. coli)
T2 sequence (Q99828 1-191): T1 sequence (Q99828 1-191)
Assay: FP assay, 1536-well qHTS format (primary and confirmatory screen)
Assay type: binding
Details: confirmatory screen, YES/NO call

Row | SMILES | CONFIRMATORY SCREEN Confirm?
7 | CCOC(=O)c1nnc(NS(=O)(=O)c2ccc(NC(=O)Cc3ccc(Cl)c(Cl)c3)cc2)s1.O=C(O)C(F)(F)F [NCGC00248354-01] | YES
8 | O=C(Cc1ccc(Cl)c(Cl)c1)Nc1ccc(S(=O)(=O)Nc2nnc(-c3ccccn3)s2)cc1.O=C(O)C(F)(F)F [NCGC00248355-01] | YES

Same assay, conditions: confirmatory screen, qHTS curve class; negative sign = inhibitory curve

Row | SMILES | CONFIRMATORY SCREEN Curve Class
9 | CCOC(=O)c1nnc(NS(=O)(=O)c2ccc(NC(=O)Cc3ccc(Cl)c(Cl)c3)cc2)s1.O=C(O)C(F)(F)F [NCGC00248354-01] | -1.2
10 | O=C(Cc1ccc(Cl)c(Cl)c1)Nc1ccc(S(=O)(=O)Nc2nnc(-c3ccccn3)s2)cc1.O=C(O)C(F)(F)F [NCGC00248355-01] | -2.1

Same assay, conditions: confirmatory screen; negative = inhibition

Row | SMILES | CONFIRMATORY SCREEN Efficacy (%)
11 | CCOC(=O)c1nnc(NS(=O)(=O)c2ccc(NC(=O)Cc3ccc(Cl)c(Cl)c3)cc2)s1.O=C(O)C(F)(F)F [NCGC00248354-01] | -47%
12 | O=C(Cc1ccc(Cl)c(Cl)c1)Nc1ccc(S(=O)(=O)Nc2nnc(-c3ccccn3)s2)cc1.O=C(O)C(F)(F)F [NCGC00248355-01] | -132%

Same assay, conditions: confirmatory screen; read-out: CONFIRMATORY SCREEN IC50

Row | SMILES | IC50
13 | CCOC(=O)c1nnc(NS(=O)(=O)c2ccc(NC(=O)Cc3ccc(Cl)c(Cl)c3)cc2)s1.O=C(O)C(F)(F)F [NCGC00248354-01] | 15.8 µM
14 | O=C(Cc1ccc(Cl)c(Cl)c1)Nc1ccc(S(=O)(=O)Nc2nnc(-c3ccccn3)s2)cc1.O=C(O)C(F)(F)F [NCGC00248355-01] | 35.5 µM

Same assay, conditions: qHTS primary screen hits, Table S2; negative = inhibition

Row | SMILES | Efficacy (%)
15 | O=C(Cc1ccc(Cl)c(Cl)c1)Nc1ccc(S(=O)(=O)Nc2nnc(-c3ccccn3)s2)cc1.O=C(O)C(F)(F)F [NCGC00248355-01] | -50%

Same assay, conditions: qHTS primary screen hits, Table S2; negative sign = inhibitory curve; several classes where COUNT > 1

Row | SMILES | Curve Class
16 | O=C(Cc1ccc(Cl)c(Cl)c1)Nc1ccc(S(=O)(=O)Nc2nnc(-c3ccccn3)s2)cc1.O=C(O)C(F)(F)F [NCGC00248355-01] | -1.2

Same assay, conditions: qHTS primary screen hits, Table S2; read-out: IC50

Row | SMILES | IC50
17 | O=C(Cc1ccc(Cl)c(Cl)c1)Nc1ccc(S(=O)(=O)Nc2nnc(-c3ccccn3)s2)cc1.O=C(O)C(F)(F)F [NCGC00248355-01] | 25.1 µM

Biological target: T3, CIB1 and αIIb interaction (GST-CIB1 : F-αIIb peptide) (Homo sapiens, UniProt Q99828)
T3 construct: made in house; host or cells: BL-21 plus RIL cells (E. coli)
T3 sequence (Q99828 1-191): T1 sequence (Q99828 1-191)
Assay: FP assay, 384-well format (screen)
Assay type: binding
Design: 384-well SCREEN Efficacy (%): concentration or dose not given beside the values
Details: F-αIIb peptide

Row | SMILES | 384-well SCREEN Efficacy (%)
18 | CCOC(=O)c1nnc(NS(=O)(=O)c2ccc(NC(=O)Cc3ccc(Cl)c(Cl)c3)cc2)s1.O=C(O)C(F)(F)F [NCGC00248354-01] | 31%
19 | O=C(Cc1ccc(Cl)c(Cl)c1)Nc1ccc(S(=O)(=O)Nc2nnc(-c3ccccn3)s2)cc1.O=C(O)C(F)(F)F [NCGC00248355-01] | 44%

Same assay, conditions: F-αIIb peptide; YES/NO

Row | SMILES | 384-well SCREEN Confirm?
20 | CCOC(=O)c1nnc(NS(=O)(=O)c2ccc(NC(=O)Cc3ccc(Cl)c(Cl)c3)cc2)s1.O=C(O)C(F)(F)F [NCGC00248354-01] | YES
21 | O=C(Cc1ccc(Cl)c(Cl)c1)Nc1ccc(S(=O)(=O)Nc2nnc(-c3ccccn3)s2)cc1.O=C(O)C(F)(F)F [NCGC00248355-01] | YES

Same assay, conditions: F-αIIb peptide; read-out: 384-well SCREEN IC50

Row | SMILES | IC50
22 | CCOC(=O)c1nnc(NS(=O)(=O)c2ccc(NC(=O)Cc3ccc(Cl)c(Cl)c3)cc2)s1.O=C(O)C(F)(F)F [NCGC00248354-01] | 28.2 µM
23 | O=C(Cc1ccc(Cl)c(Cl)c1)Nc1ccc(S(=O)(=O)Nc2nnc(-c3ccccn3)s2)cc1.O=C(O)C(F)(F)F [NCGC00248355-01] | 11.2 µM

Biological target: T1, GST-CIB1 : F-scrambled peptide
Assay: FP scrambled-peptide counter screen, 1536-well format
Assay type: binding
Details: scrambled-peptide counterscreen

Row | SMILES | COUNTERSCREEN Efficacy (%)
24 | CCOC(=O)c1nnc(NS(=O)(=O)c2ccc(NC(=O)Cc3ccc(Cl)c(Cl)c3)cc2)s1.O=C(O)C(F)(F)F [NCGC00248354-01] | 66%
25 | O=C(Cc1ccc(Cl)c(Cl)c1)Nc1ccc(S(=O)(=O)Nc2nnc(-c3ccccn3)s2)cc1.O=C(O)C(F)(F)F [NCGC00248355-01] | -73%

Same assay, conditions: scrambled-peptide counterscreen, YES/NO call

Row | SMILES | COUNTERSCREEN Confirm?
26 | CCOC(=O)c1nnc(NS(=O)(=O)c2ccc(NC(=O)Cc3ccc(Cl)c(Cl)c3)cc2)s1.O=C(O)C(F)(F)F [NCGC00248354-01] | YES
27 | O=C(Cc1ccc(Cl)c(Cl)c1)Nc1ccc(S(=O)(=O)Nc2nnc(-c3ccccn3)s2)cc1.O=C(O)C(F)(F)F [NCGC00248355-01] | YES

Same assay, conditions: scrambled-peptide counterscreen, qHTS curve class

Row | SMILES | COUNTERSCREEN Curve Class
28 | O=C(Cc1ccc(Cl)c(Cl)c1)Nc1ccc(S(=O)(=O)Nc2nnc(-c3ccccn3)s2)cc1.O=C(O)C(F)(F)F [NCGC00248355-01] | -2.4

Same assay, conditions: scrambled-peptide counterscreen; read-out: COUNTERSCREEN IC50

Row | SMILES | IC50
29 | CCOC(=O)c1nnc(NS(=O)(=O)c2ccc(NC(=O)Cc3ccc(Cl)c(Cl)c3)cc2)s1.O=C(O)C(F)(F)F [NCGC00248354-01] | 44.7 µM
30 | O=C(Cc1ccc(Cl)c(Cl)c1)Nc1ccc(S(=O)(=O)Nc2nnc(-c3ccccn3)s2)cc1.O=C(O)C(F)(F)F [NCGC00248355-01] | 79.4 µM
